# Measured values as given in patent US20220332695A1, “UREA DERIVATIVES AS CB1 ALLOSTERIC MODULATORS” (RTI INTERNATIONAL, priority 2019, published 2022).
# Biological target: T1, mouse CB1R (Mus musculus, UniProt P47746)
# T1 construct: membranes (10 μg protein) from either ICR mouse cerebellum mice; from tissue; host or cells: cerebellum membranes of ICR mice
# Assay: [35S]GTPγS binding assay in mouse cerebellum membranes
# Format: biochemical
# Conditions: not given
# T1 sequence (P47746 whole entry): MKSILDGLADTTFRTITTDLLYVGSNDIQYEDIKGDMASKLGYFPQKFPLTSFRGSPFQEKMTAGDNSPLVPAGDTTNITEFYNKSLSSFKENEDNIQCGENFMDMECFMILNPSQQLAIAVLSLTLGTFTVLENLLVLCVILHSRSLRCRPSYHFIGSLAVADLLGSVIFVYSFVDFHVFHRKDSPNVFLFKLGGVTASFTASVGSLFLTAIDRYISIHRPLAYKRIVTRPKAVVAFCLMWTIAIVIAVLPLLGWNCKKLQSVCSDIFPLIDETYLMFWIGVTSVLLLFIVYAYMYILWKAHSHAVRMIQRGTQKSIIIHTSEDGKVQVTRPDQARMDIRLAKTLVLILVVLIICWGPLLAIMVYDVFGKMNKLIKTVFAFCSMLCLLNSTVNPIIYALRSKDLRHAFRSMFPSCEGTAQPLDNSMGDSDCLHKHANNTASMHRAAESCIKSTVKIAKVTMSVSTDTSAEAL
row,Compound,IC50 [nM]
1,"CN(C)c1cccc(CCNC(=O)Nc2ccc(Cl)cc2)c1 [Compound 50, 3-(4-Chlorophenyl)-1-{2-[3-(dimethylamino)phenyl]ethyl}urea]",592
2,"CN(C)c1ccc(CCNC(=O)Nc2ccc(Cl)cc2)cc1 [Compound 51, 3-(4-Chlorophenyl)-1-{2-[4-(dimethylamino)phenyl]ethyl}urea]",1590

# Same assay, conditions: Tables 4-6; CP55,940 concentration not stated; mean (95% confidence interval); read-out: mCB1R [35S]GTPγS binding assay IC50
row,Compound,IC50 [nM]
1,"O=C(NCCc1cccc(C(F)(F)F)c1)Nc1ccc(Cl)cc1 [Compound 74, 3-(4-Chlorophenyl)-1-{2-[3-(trifluoromethyl)phenyl]ethyl}urea]",766
2,"Cc1cccc(CCNC(=O)Nc2ccc(Cl)cc2)c1 [Compound 60, 3-(4-Chlorophenyl)1-[2-(3-methylphenyl)ethyl]urea]",4180
3,"O=C(NCCc1cccc(F)c1)Nc1ccc(Cl)cc1 [Compound 62, 3-(4-Chlorophenyl)-1-[2-(3-fluorophenyl)ethyl]urea]",1520
4,"Cc1ccc(CCNC(=O)Nc2ccc(Cl)cc2)o1 [Compound 79, 1-(4-Chlorophenyl)-3-[2-(5-methylfuran-2-yl)ethyl]urea]",2780
5,3-(4-Chlorophenyl)-1-[2-(3-methoxyphenyl)ethyl]urea [Compound 55],3720
6,"O=C(NCCc1ccc([N+](=O)[O-])cc1)Nc1ccc(Cl)cc1 [Compound 48, 3-(4-Chlorophenyl)-1-[2-(4-nitrophenyl)ethyl]urea]",780

# Biological target: T2, hCB1R (Homo sapiens, UniProt P21554)
# Assay: [35S]GTPγS binding assay in HEK cells stably expressing human CB1R
# Format: biochemical
# Set-up: expressed in transfected cells; host or cells: HEK (HEK293) cells, membranes
# Conditions: [CP] = 100 nM, mean (95% confidence interval), read-out: hCB1R [35S]GTPγS binding assay IC50
# Description: [^35S]GTPγS Binding Assay: For receptor signaling, membranes (10 μg protein) from either ICR mouse cerebellum mice (6-8 weeks old; Enviga
# Non-specific binding was determined by adding 30 μM unlabeled GTPyS. Concentration response curves for allosteric modulators were conducted in the presence of CP55,940 (100 nM or 1 μM) to calculate 1050 values.
# For [^35S]GTPyS experiments, data were normalized to maximal CP55,940 (100 nM) stimulation in the absence of test compound (i.e., vehicle=100%).
# T2 sequence (P21554 whole entry): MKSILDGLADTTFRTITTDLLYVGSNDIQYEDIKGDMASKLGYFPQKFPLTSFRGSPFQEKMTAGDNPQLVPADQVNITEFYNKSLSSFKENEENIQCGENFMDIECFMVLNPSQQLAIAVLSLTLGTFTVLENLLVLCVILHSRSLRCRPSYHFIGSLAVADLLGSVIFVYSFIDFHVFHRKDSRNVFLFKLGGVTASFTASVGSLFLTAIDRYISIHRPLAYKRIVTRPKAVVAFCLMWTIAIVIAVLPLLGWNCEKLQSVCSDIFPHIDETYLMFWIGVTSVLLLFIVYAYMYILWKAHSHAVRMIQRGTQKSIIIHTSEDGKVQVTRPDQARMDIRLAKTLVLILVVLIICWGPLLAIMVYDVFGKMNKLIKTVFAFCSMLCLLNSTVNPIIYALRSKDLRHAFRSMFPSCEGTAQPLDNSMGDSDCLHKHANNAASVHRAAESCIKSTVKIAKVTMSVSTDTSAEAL
row,Compound,IC50 [nM]
1,"O=C(Nc1ccc(Cl)cc1)Nc1ccc(-c2ccc(Cl)cc2)s1 [Compound 23, 1-(4-Chlorophenyl)-3-[5-(4-chlorophenyl)thiophen-2-yl]urea]",774
2,"O=C(Nc1ccc(Cl)cc1)Nc1csc(-c2ccccc2)c1 [Compound 13, 1-(4-Chlorophenyl)-3-(5-phenylthiophen-3-yl)urea]",888
3,"COc1ccc(-c2cccc(N3CCCC3)n2)cc1NC(=O)Nc1ccc(Cl)cc1 [Compound 6, 3-(4-Chlorophenyl)-1-{2-methoxy-5-[6-(pyrrolidin-1-yl)pyridin-2-yl]phenyl}urea]",> 10000
4,"O=C(Nc1ccc(Cl)cc1)N[C@@H]1C[C@H]1c1ccccc1 (racemic) [Compound 15, trans-1-(4-Chlorophenyl)-3-(2-phenylcyclopropyl)urea]",> 10000
5,"O=C(Nc1ccc(Cl)cc1)Nc1ccc(-c2ccc(Cl)c(Cl)c2)s1 [Compound 24, 1-(4-Chlorophenyl)-3-[5-(3,4-dichlorophenyl)thiophen-2-yl]urea]",1720
6,"O=C(Nc1ccc(Cl)cc1)Nc1ccc(-c2cccc(Cl)c2)s1 [Compound 22, 1-(4-Chlorophenyl)-3-[5-(3-chlorophenyl)thiophen-2-yl]urea]",553
7,"COC(=O)c1cccc(-c2ccc(NC(=O)Nc3ccc(Cl)cc3)s2)c1 [Compound 27, Methyl 3-(5-{[(4-chlorophenyl)carbamoyl]amino}thiophen-2-yl)benzoate]",2350

# Biological target: T2, hCB1R
# Assay: Calcium mobilization assay, antagonist mode against CP55,940
# Format: cell-based
# Set-up: expressed in transfected cells; host or cells: CHO-RD-HGA16 cells (parental line from Molecular Devices)
# Conditions: not given
row,Compound,IC50 [nM]
1,"N#Cc1ccc(CCNC(=O)Nc2ccc(Cl)cc2)cc1 [Compound 72, 3-(4-Chlorophenyl)1-[2-(4-cyanophenyl)ethyl]urea]",443 ± 53
2,"O=C(NCCc1ccccc1F)Nc1ccc(Cl)cc1 [Compound 61, 3-(4-Chlorophenyl)1-[2-(2-fluorophenyl)ethyl]urea]",174 ± 27
3,"CN(C)c1cccc(CCNC(=O)Nc2ccc(Cl)cc2)c1 [Compound 50, 3-(4-Chlorophenyl)-1-{2-[3-(dimethylamino)phenyl]ethyl}urea]",1680 ± 284
4,"CN(C)c1ccc(CCNC(=O)Nc2ccc(Cl)cc2)cc1 [Compound 51, 3-(4-Chlorophenyl)-1-{2-[4-(dimethylamino)phenyl]ethyl}urea]",323 ± 88
5,"O=C(NCCc1cccc(C(F)(F)F)c1)Nc1ccc(Cl)cc1 [Compound 74, 3-(4-Chlorophenyl)-1-{2-[3-(trifluoromethyl)phenyl]ethyl}urea]",32 ± 7
6,"O=C(NCCc1ccccc1)Nc1ccc(Cl)cc1 [Compound 44, 3-(4-Chlorophenyl)-1-(2-phenylethyl)urea]",193 ± 35
7,"CS(=O)(=O)c1ccc(CCNC(=O)Nc2ccc(Cl)cc2)cc1 [Compound 52, 3-(4-Chlorophenyl)-1-[2-(4-methanesulfonylphenyl)ethyl]urea]",> 10000
8,"CC(C)(C)c1ccc(CCNC(=O)Nc2ccc(Cl)cc2)cc1 [Compound 45, 1-[2-(4-tert-Butylphenyl)ethyl]-3-(4-chlorophenyl)urea]",573 ± 105
9,"Cc1cccc(CCNC(=O)Nc2ccc(Cl)cc2)c1 [Compound 60, 3-(4-Chlorophenyl)1-[2-(3-methylphenyl)ethyl]urea]",45 ± 9
10,"COc1cccc(CCNC(=O)Nc2ccc(Cl)cc2)c1 [Compound 54, 3-(4-Chlorophenyl)-1-[2-(3-methoxyphenyl)ethyl]urea]",485 ± 93
11,"O=C(NCCc1ccccc1C(F)(F)F)Nc1ccc(Cl)cc1 [Compound 73, 3-(4-Chlorophenyl)-1-{2-[2-(trifluoromethyl)phenyl]ethyl}urea]",143 ± 34
12,"O=C(NCCc1cccc(F)c1)Nc1ccc(Cl)cc1 [Compound 62, 3-(4-Chlorophenyl)-1-[2-(3-fluorophenyl)ethyl]urea]",53 ± 9
13,"O=C(NCCc1ccc(F)cc1)Nc1ccc(Cl)cc1 [Compound 63, 3-(4-Chlorophenyl)1-[2-(4-fluorophenyl)ethyl]urea]",108 ± 19
14,"COc1ccc(CCNC(=O)Nc2ccc(Cl)cc2)cc1OC [Compound 56, 3-(4-Chlorophenyl)-1-[2-(3,4-dimethoxyphenyl)ethyl]urea]",1860 ± 319
15,"Cc1ccc(CCNC(=O)Nc2ccc(Cl)cc2)cc1 [Compound 59, 3-(4-Chlorophenyl)1-[2-(4-methylphenyl)ethyl]urea]",137 ± 21
16,"O=C(NCCc1ccc(Br)cc1)Nc1ccc(Cl)cc1 [Compound 71, 3-(4-Chlorophenyl)1-[2-(4-bromophenyl)ethyl]urea]",151 ± 20
17,"O=C(NCCc1c(F)c(F)c(F)c(F)c1F)Nc1ccc(Cl)cc1 [Compound 66, 3-(4-Chlorophenyl)1-[2-(2,3,4,5,6-pentafluorophenyl)ethyl]urea]",34 ± 7
18,"O=C(NCCc1ccc(Cl)cc1Cl)Nc1ccc(Cl)cc1 [Compound 69, 3-(4-Chlorophenyl)1-[2-(2,4-dichlorophenyl)ethyl]urea]",174 ± 34
19,"O=C(NCCc1ccc(F)c(F)c1)Nc1ccc(Cl)cc1 [Compound 64, 3-(4-Chlorophenyl)-1-[2-(3,4-difluorophenyl)ethyl]urea]",47 ± 5
20,"O=C(NCCc1ccc(O)cc1)Nc1ccc(Cl)cc1 [Compound 58, 3-(4-Chlorophenyl)1-[2-(4-hydroxyphenyl)ethyl]urea]",> 10000
21,"COc1ccccc1CCNC(=O)Nc1ccc(Cl)cc1 [Compound 53, 3-(4-Chlorophenyl)-1-[2-(2-methoxyphenyl)ethyl]urea]",1620 ± 248
22,"O=C(NCCc1ccc(C(F)(F)F)cc1)Nc1ccc(Cl)cc1 [Compound 75, 3-(4-Chlorophenyl)-1-{2-[4-(trifluoromethyl)phenyl]ethyl}urea]",194 ± 38
23,"O=C(NCCc1ccc(-c2ccccc2)cc1)Nc1ccc(Cl)cc1 [Compound 46, 3-(4-Chlorophenyl)-1-[2-(4-phenylphenyl)ethyl]urea]",897 ± 167
24,"COc1cc(CCNC(=O)Nc2ccc(Cl)cc2)ccc1O [Compound 49, 3-(4-Chlorophenyl)-1-[2-(4-hydroxy-3-methoxyphenyl)ethyl]urea]",> 10000
25,"O=C(NCCc1ccc([N+](=O)[O-])cc1)Nc1ccc(Cl)cc1 [Compound 48, 3-(4-Chlorophenyl)-1-[2-(4-nitrophenyl)ethyl]urea]",87 ± 12
26,"O=C(NCCc1ccccc1Cl)Nc1ccc(Cl)cc1 [Compound 67, 3-(4-Chlorophenyl)1-[2-(2-chlorophenyl)ethyl]urea]",237 ± 35
27,"O=C(NCCc1c(F)cccc1Cl)Nc1ccc(Cl)cc1 [Compound 70, 3-(4-Chlorophenyl)1-[2-(2-chloro-6-fluorophenyl)ethyl]urea]",408 ± 66
28,"O=C(NCCc1c(F)cc(F)cc1F)Nc1ccc(Cl)cc1 [Compound 65, 3-(4-Chlorophenyl)-1-[2-(2,4,6-trifluorophenyl)ethyl]urea]",81 ± 9

# Same assay, conditions: CHO cells expressing human CB1R; against CP55,940 (100 nM); mean ± SEM; read-out: hCB1R Calcium assay IC50
row,Compound,IC50 [nM]
1,"O=C(Nc1ccc(Cl)cc1)Nc1ccc(-c2ccc(Cl)cc2)s1 [Compound 23, 1-(4-Chlorophenyl)-3-[5-(4-chlorophenyl)thiophen-2-yl]urea]",43 ± 7
2,"O=C(Nc1ccc(Cl)cc1)Nc1csc(-c2ccccc2)c1 [Compound 13, 1-(4-Chlorophenyl)-3-(5-phenylthiophen-3-yl)urea]",60 ± 8
3,"COc1ccc(-c2cccc(N3CCCC3)n2)cc1NC(=O)Nc1ccc(Cl)cc1 [Compound 6, 3-(4-Chlorophenyl)-1-{2-methoxy-5-[6-(pyrrolidin-1-yl)pyridin-2-yl]phenyl}urea]",1270
4,"O=C(Nc1ccc(Cl)cc1)N[C@@H]1C[C@H]1c1ccccc1 (racemic) [Compound 15, trans-1-(4-Chlorophenyl)-3-(2-phenylcyclopropyl)urea]",1220 ± 188
5,"O=C(Nc1ccc(Cl)cc1)Nc1ccc(-c2ccc(Cl)c(Cl)c2)s1 [Compound 24, 1-(4-Chlorophenyl)-3-[5-(3,4-dichlorophenyl)thiophen-2-yl]urea]",111 ± 14
6,"O=C(Nc1ccc(Cl)cc1)Nc1ccc(-c2cccc(Cl)c2)s1 [Compound 22, 1-(4-Chlorophenyl)-3-[5-(3-chlorophenyl)thiophen-2-yl]urea]",40 ± 7
7,"O=C(NCCN1CCOCC1)Nc1ccc(Cl)cc1 [Compound 82, 3-(4-Chlorophenyl)-1-[2-(morpholin-4-yl)ethyl]urea]",> 10000
8,"COC(=O)c1cccc(-c2ccc(NC(=O)Nc3ccc(Cl)cc3)s2)c1 [Compound 27, Methyl 3-(5-{[(4-chlorophenyl)carbamoyl]amino}thiophen-2-yl)benzoate]",345 ± 48
9,"O=C(NCCc1ccccn1)Nc1ccc(Cl)cc1 [Compound 78, 3-(4-Chlorophenyl)-1-[2-(pyridin-2-yl)ethyl]urea]",3630 ± 687
10,"O=C(NCCc1ccncc1)Nc1ccc(Cl)cc1 [Compound 76, 3-(4-Chlorophenyl)-1-[2-(pyridin-4-yl)ethyl]urea]",> 10000
11,"O=C(NC[C@@H]1C[C@H]1c1ccccc1)Nc1ccc(Cl)cc1 (relative stereo) [Compound 43, trans-1-(4-Chlorophenyl)-3-[(2-phenylcyclopropyl)methyl]urea]",2610 ± 548
12,"CC(=O)NCCNC(=O)Nc1ccc(Cl)cc1 [Compound 84, N-(2-{[(4-Chlorophenyl)carbamoyl]amino}ethyl)acetamide]",1830 ± 362
13,"O=C(NCCCc1ccccc1)Nc1ccc(Cl)cc1 [Compound 37, 3-(4-Chlorophenyl)-1-(3-phenylpropyl)urea]",3700 ± 481
14,"O=C(NCC(F)(F)c1ccccc1)Nc1ccc(Cl)cc1 [Compound 39, 3-(4-Chlorophenyl)-1-(2,2-difluoro-2-phenylethyl)urea]",1580 ± 328
15,"O=C(NCC1(c2ccccc2)CC1)Nc1ccc(Cl)cc1 [Compound 41, 1-(4-Chlorophenyl)-3-[(1-phenylcyclopropyl)methyl]urea]",5160 ± 1150
16,"Cc1ccc(CCNC(=O)Nc2ccc(Cl)cc2)o1 [Compound 79, 1-(4-Chlorophenyl)-3-[2-(5-methylfuran-2-yl)ethyl]urea]",255 ± 40
17,"O=C(NCCN1CCCCC1)Nc1ccc(Cl)cc1 [Compound 81, 3-(4-Chlorophenyl)-1-[2-(piperidin-1-yl)ethyl]urea]",> 10000
18,"O=C(NCCc1cccnc1)Nc1ccc(Cl)cc1 [Compound 77, 3-(4-Chlorophenyl)-1-[2-(pyridin-3-yl)ethyl]urea]",> 10000
19,"O=C(NCCN1CCCC1)Nc1ccc(Cl)cc1 [Compound 83, 1-(4-Chlorophenyl)-3-[2-(pyrrolidin-1-yl)ethyl]urea]",> 10000
20,3-(4-Chlorophenyl)-1-[2-(3-methoxyphenyl)ethyl]urea [Compound 55],228 ± 45
21,"CN1CCN(CCNC(=O)Nc2ccc(Cl)cc2)CC1 [Compound 80, 3-(4-Chlorophenyl)-1-[2-(4-methylpiperazin-1-yl)ethyl]urea]",> 10000
